Source: US12637428B2, “Isoquinoline derivatives as SIK2 inhibitors” (Cancer Research Technology Limited, priority 2019, dated 2026)

Columns and labels:
Assay type in all cases: biochemical
SIK2 = biological target: T1, SIK2 (Homo sapiens, UniProt Q9H0K1); assay: SIK2 kinase assay, IMAP fluorescence polarization; conditions: 50 or 100 μM ATP, average
T1 construct: purchased Life Technologies
Outline: (§1)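 Dose-response over 0.00005-1 μM compound in 20 mM Tris pH 7.2 containing 4 mM MgCl2, 0.2% BSA and 2 mM DTT, with 50 or 100 μM ATP and 100 nM FAM-labelled peptide. Kinase 0.6-13 nM, 60 min at room temperature; IMAP FP readout, inhibition normalized to no-inhibitor and no-enzyme controls.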

SIK1 = biological target: T2, SIK1 (Homo sapiens, UniProt P57059); assay: SIK1 kinase assay, IMAP fluorescence polarization; conditions: 50 or 100 μM ATP, average
T2 construct: purchased Life Technologies
Outline: as §1

SIK3 = biological target: T3, SIK3 (Homo sapiens, UniProt Q9Y2K2); assay: SIK3 kinase assay, IMAP fluorescence polarization; conditions: 50 or 100 μM ATP, average
T3 construct: purchased Life Technologies
Outline: as §1

Abl = biological target: T4, Abl (Homo sapiens, UniProt P00519); assay: Abl kinase assay, IMAP fluorescence polarization; conditions: 50 or 100 μM ATP, average
T4 construct: purchased Life Technologies
Outline: as §1

Src = biological target: T5, Src (Homo sapiens, UniProt P12931); assay: Src kinase assay, IMAP fluorescence polarization; conditions: 50 or 100 μM ATP, average
T5 construct: purchased Life Technologies
Outline: as §1

EPHA2 = biological target: T6, EPHA2 (Homo sapiens, UniProt P29317); assay: EPHA2 kinase assay, IMAP fluorescence polarization; conditions: 50 or 100 μM ATP, Tris pH 8.5, average
T6 construct: purchased Life Technologies
T6 sequence (P29317 24-976): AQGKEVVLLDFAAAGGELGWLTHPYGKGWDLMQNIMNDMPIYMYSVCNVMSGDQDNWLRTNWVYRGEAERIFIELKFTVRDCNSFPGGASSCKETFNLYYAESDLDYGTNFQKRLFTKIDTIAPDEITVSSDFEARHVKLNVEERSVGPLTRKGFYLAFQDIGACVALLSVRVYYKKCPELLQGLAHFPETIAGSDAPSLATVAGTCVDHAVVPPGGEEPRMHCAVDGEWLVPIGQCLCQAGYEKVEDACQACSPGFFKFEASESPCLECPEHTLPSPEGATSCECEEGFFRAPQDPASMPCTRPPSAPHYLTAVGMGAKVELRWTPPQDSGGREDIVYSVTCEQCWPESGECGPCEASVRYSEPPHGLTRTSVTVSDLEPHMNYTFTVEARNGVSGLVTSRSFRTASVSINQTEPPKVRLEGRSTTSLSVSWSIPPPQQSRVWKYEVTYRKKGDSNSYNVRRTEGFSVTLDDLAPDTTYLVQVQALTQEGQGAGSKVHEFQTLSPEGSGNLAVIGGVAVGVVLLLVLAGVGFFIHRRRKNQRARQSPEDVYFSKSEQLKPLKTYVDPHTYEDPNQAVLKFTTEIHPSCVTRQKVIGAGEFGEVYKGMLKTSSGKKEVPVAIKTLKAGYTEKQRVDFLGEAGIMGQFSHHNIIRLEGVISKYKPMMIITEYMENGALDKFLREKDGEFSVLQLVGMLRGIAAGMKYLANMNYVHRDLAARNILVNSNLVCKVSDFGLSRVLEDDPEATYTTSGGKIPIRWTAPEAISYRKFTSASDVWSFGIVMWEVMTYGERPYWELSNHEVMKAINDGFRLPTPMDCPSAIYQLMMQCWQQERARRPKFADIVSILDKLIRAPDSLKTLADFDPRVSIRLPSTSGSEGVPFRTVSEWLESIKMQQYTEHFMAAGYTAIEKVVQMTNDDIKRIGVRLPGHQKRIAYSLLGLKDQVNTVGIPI

T3 sequence (Q9Y2K2 whole entry): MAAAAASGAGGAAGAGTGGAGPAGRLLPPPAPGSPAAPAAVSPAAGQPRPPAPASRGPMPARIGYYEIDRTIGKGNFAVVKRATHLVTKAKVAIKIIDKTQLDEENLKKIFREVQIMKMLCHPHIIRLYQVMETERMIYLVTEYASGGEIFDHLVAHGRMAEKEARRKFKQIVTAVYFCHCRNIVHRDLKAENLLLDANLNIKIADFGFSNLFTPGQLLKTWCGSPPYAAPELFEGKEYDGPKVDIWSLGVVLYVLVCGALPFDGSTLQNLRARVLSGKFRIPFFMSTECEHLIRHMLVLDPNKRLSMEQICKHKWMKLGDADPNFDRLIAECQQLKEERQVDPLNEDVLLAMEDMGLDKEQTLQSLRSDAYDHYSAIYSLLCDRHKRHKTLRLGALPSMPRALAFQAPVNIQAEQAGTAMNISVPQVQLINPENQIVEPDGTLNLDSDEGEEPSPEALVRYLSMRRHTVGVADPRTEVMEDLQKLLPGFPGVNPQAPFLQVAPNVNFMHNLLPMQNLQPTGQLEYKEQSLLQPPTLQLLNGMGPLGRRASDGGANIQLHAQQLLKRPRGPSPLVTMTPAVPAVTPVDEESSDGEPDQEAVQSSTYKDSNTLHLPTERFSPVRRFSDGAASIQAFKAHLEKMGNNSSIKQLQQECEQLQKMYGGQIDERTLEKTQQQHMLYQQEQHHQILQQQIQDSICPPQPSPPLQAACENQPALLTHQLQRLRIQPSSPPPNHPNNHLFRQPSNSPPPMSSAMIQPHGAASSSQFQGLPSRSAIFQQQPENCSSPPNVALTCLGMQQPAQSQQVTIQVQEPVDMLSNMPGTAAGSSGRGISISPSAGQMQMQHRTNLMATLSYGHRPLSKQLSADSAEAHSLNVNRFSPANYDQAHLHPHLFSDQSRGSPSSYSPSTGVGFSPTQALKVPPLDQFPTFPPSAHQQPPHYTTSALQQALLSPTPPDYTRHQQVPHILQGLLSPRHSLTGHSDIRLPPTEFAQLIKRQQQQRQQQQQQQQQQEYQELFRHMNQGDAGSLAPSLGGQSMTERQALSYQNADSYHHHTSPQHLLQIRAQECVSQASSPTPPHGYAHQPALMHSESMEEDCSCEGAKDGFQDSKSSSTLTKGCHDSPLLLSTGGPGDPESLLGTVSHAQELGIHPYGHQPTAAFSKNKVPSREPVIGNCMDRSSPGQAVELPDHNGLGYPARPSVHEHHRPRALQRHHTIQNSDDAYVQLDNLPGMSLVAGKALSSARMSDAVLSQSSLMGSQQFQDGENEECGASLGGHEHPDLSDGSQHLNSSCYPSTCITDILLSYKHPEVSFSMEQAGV
T4 sequence (P00519 whole entry): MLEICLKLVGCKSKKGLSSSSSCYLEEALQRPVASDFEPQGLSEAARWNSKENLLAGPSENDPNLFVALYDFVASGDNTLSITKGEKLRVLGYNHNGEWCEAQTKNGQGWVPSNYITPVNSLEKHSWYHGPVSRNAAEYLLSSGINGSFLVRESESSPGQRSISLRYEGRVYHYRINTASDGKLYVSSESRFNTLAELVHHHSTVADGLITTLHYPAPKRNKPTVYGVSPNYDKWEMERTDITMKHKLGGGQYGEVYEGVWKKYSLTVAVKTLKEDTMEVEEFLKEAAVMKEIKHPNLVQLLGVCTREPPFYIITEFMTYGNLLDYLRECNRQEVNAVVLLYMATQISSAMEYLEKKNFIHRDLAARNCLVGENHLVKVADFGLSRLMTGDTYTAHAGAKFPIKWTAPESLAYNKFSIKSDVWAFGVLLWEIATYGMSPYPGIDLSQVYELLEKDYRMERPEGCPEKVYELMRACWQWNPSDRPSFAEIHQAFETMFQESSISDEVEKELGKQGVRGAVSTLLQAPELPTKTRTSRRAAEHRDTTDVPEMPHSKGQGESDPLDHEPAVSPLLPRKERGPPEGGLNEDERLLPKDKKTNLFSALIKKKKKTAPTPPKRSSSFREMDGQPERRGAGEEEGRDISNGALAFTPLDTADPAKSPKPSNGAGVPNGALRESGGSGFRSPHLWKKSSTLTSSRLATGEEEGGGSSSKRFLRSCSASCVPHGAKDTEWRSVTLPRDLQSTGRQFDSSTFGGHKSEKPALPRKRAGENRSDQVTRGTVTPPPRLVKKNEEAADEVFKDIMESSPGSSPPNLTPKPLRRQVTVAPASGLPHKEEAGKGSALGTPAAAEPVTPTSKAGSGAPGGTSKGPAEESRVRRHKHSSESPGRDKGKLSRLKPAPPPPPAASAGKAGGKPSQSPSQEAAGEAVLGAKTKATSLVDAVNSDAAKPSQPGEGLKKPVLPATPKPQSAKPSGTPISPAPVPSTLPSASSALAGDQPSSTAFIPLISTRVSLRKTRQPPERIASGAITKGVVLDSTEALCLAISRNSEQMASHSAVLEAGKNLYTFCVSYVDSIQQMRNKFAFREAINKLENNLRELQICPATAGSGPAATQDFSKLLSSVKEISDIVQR
T2 sequence (P57059 whole entry): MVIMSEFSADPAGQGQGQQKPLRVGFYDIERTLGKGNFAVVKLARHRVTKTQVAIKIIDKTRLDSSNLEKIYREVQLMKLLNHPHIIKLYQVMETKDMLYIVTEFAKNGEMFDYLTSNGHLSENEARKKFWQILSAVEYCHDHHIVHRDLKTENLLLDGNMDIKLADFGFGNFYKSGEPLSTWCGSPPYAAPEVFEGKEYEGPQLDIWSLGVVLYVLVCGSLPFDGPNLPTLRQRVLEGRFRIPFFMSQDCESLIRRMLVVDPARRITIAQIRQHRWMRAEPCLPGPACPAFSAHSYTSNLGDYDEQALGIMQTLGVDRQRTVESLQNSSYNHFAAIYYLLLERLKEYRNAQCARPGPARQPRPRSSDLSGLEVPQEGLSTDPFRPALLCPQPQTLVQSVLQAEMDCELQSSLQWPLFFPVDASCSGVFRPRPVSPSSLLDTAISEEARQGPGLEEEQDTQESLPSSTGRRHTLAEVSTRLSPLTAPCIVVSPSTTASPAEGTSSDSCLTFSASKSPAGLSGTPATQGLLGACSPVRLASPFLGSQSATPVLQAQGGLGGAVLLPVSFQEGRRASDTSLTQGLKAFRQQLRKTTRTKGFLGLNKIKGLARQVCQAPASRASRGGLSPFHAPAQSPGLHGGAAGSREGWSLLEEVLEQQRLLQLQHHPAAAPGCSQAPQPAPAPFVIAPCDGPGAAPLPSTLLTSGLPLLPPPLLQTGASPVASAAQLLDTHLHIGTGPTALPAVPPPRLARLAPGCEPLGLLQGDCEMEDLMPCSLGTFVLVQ
T1 sequence (Q9H0K1 whole entry): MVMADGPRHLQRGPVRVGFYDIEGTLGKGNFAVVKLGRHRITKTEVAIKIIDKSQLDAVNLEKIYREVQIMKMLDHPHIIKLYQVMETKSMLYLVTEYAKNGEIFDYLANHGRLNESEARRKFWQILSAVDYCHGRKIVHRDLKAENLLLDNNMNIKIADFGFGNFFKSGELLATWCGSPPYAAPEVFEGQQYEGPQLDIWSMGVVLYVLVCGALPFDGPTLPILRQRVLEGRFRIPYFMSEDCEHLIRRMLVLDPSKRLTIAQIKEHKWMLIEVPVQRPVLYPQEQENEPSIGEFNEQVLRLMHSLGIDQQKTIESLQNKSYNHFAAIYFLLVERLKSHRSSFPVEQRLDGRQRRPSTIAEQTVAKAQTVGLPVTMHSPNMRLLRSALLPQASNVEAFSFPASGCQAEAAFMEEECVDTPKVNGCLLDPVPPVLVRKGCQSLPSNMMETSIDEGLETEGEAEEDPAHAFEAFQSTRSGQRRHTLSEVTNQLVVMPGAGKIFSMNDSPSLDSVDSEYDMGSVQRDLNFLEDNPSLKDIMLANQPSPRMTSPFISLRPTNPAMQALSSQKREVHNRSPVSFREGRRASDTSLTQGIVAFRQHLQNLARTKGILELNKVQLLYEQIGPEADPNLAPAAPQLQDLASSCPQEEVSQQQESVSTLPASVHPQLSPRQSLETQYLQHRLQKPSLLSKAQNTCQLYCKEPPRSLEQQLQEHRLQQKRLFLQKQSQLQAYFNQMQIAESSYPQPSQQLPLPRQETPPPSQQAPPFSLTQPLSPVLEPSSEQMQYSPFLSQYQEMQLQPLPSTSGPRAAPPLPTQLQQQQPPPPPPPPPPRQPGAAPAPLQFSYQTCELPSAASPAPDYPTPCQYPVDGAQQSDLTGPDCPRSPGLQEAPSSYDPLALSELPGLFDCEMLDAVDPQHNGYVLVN

| Ki (SIK2) [nM] | Ki (SIK1) [nM] | Ki (SIK3) [nM] | Ki (Abl) [nM] | Ki (Src) [nM] | Ki (EPHA2) [nM] | SMILES |
| --- | --- | --- | --- | --- | --- | --- |
| 0.998 | 2.01 | 10.1 | 104 | 151 | 220 | Cc1cccc(Cl)c1-c1cc(NC2CN(C)C2)c2cc(N)ncc2c1 [Example 63, 7-(2-chloro-6-methyl-phenyl)-N5-(1-methylazetidin-3-yl)isoquinoline-3,5-diamine] |
| 0.716 | 3.73 | 4.57 | 35.9 | 285 | 264 | Cc1cccc(F)c1-c1cc(NC2CN(C)C2)c2ccncc2c1 [Example 65, 7-(2-Fluoro-6-methyl-phenyl)-N-(1-methylazetidin-3-yl)isoquinolin-5-amine] |
| 0.646 | 0.528 | 1.15 | 58.7 | 105 | 54.9 | Cc1cccc(Cl)c1-c1cc(NC2CCN(C)CC2)c2ccncc2c1 [Example 66, 7-(2-chloro-6-methyl-phenyl)-N-(1-methyl-4-piperidyl)isoquinolin-5-amine] |
| 11.8 | 10.4 | 27.2 | 92.9 | 249 | 50.4 | Cc1cccc(Cl)c1-c1cc(NC2CN(C)C2)c2ccncc2c1 [Example 67, 7-(2-chloro-6-methyl-phenyl)-N-(1-methylazetidin-3-yl)isoquinolin-5-amine] |
| 0.1 | 0.532 | 0.993 | 17.8 | 160 | 323 | Cc1cccc(F)c1-c1cc(NC2CN(C)C2)c2cc(N)ncc2c1 [Example 68, 7-(2-Fluoro-6-methyl-phenyl)-N5-(1-methylazetidin-3-yl)isoquinoline-3,5-diamine] |
| 0.0972 | 0.3 | 0.986 | 5.14 | 35.8 | > 1000 | Cc1cccc(F)c1-c1cc(N[C@@H]2CCN(C)C2)c2cc(N)ncc2c1 [Example 69, 7-(2-fluoro-6-methyl-phenyl)-N5-[(3R)-1-methylpyrrolidin-3-yl]isoquinoline-3,5-diamine] |
| 0.111 | 0.439 | 4.14 | 9.94 | 84.8 | 74.6 | Cc1cccc(F)c1-c1cc(N[C@H]2CCN(C)C2)c2cc(N)ncc2c1 [Example 70, 7-(2-fluoro-6-methyl-phenyl)-N5-[(3S)-1-methylpyrrolidin-3-yl]isoquinoline-3,5-diamine] |
| 0.486 | 1.17 | 5.67 | 15.6 | 149 | > 1000 | Cc1cccc(F)c1-c1cc(NCC2CCN(C)CC2)c2cc(N)ncc2c1 [Example 71, 7-(2-fluoro-6-methyl-phenyl)-N5-[(1-methyl-4-piperidyl)methyl] isoquinoline-3,5-diamine] |
| 0.117 | 0.627 | 1.29 | 1.83 | 40.1 | 153 | Cc1cccc(F)c1-c1cc(NCC2CN(C)C2)c2cc(N)ncc2c1 [Example 72, 7-(2-fluoro-6-methyl-phenyl)-N5-[(1-methylazetidin-3-yl)methyl] isoquinoline-3,5-diamine] |
| 0.0693 | 0.498 | 0.528 | 6.45 | 98.1 | 251 | Cc1cccc(F)c1-c1cc(NC[C@H]2CCCN2C)c2cc(N)ncc2c1 [Example 73, 7-(2-fluoro-6-methyl-phenyl)-N5-[[(2R)-1-methylpyrrolidin-2-yl]methyl] isoquinoline-3,5-diamine] |
| 0.101 | 0.461 | 0.765 | 0.505 | > 1000 | 66.1 | Cc1cccc(F)c1-c1cc(NC[C@@H]2CCN(C)C2)c2cc(N)ncc2c1 [Example 74, 7-(2-fluoro-6-methyl-phenyl)-N5-[[(3S)-1-methylpyrrolidin-3-yl]methyl]isoquinoline-3,5-diamine] |
| 0.19 | 0.618 | 2 | 10.3 | 45.2 | 120 | Cc1cccc(F)c1-c1cc(NC[C@H]2CCN(C)C2)c2cc(N)ncc2c1 [Example 75, 7-(2-fluoro-6-methyl-phenyl)-N5-[[(3R)-1-methylpyrrolidin-3-yl]methyl] isoquinoline-3,5-diamine] |
| 0.188 | 0.516 | 1.64 | 2 | 12.7 | 16.6 | Cc1cccc(F)c1-c1cc(NC[C@@H]2CCCN(C)C2)c2cc(N)ncc2c1 [Example 76, 7-(2-fluoro-6-methyl-phenyl)-N5-[[(3S)-1-methyl-3-piperidyl]methyl]isoq uinoline-3,5-diamine] |
| 0.302 | 1.13 | 3.74 | 26.5 | 197 | 80.1 | Cc1cccc(F)c1-c1cc(NC[C@H]2CCCN(C)C2)c2cc(N)ncc2c1 [Example 77, 7-(2-fluoro-6-methyl-phenyl)-N5-[[(3R)-1-methyl-3-piperidyl]methyl] isoquinoline-3,5-diamine] |
| 0.0935 | 0.433 | 1.6 | 6.85 | 43.3 | 119 | Cc1cccc(F)c1-c1cc(NC[C@@H]2CCCCN2C)c2cc(N)ncc2c1 [Example 78, 7-(2-fluoro-6-methyl-phenyl)-N5-[[(2S)-1-methyl-2-piperidyl]methyl]isoq uinoline-3,5-diamine] |
| 0.101 | 0.747 | 2.24 | 12.7 | 106 | 84.1 | Cc1cccc(F)c1-c1cc(N2CC(N(C)C)C2)c2cc(N)ncc2c1 [Example 79, 5-[3-(dimethylamino)azetidin-1-yl]-7-(2-fluoro-6-methyl-phenyl)isoquinolin-3-amine] |
| 0.448 | 0.905 | 4.9 | 15.2 | 48.6 | > 1000 | Cc1cccc(F)c1-c1cc(N[C@@H]2CCCCN(C)C2)c2cc(N)ncc2c1 [Example 80, 7-(2-fluoro-6-methyl-phenyl)-N5-[(3R)-1-methylazepan-3-yl]isoquinoline-3,5-diamine] |
| 0.269 | 1.25 | 10.3 | 10.4 | 93.9 | > 1000 | Cc1cccc(F)c1-c1cc(N2CCC[C@H](N(C)C)C2)c2cc(N)ncc2c1 [Example 82, 5-[(3S)-3-(dimethylamino)-1-piperidyl]-7-(2-fluoro-6-methyl-phenyl)isoquinolin-3-amine] |
| 0.316 | 0.55 | 7.35 | 9.38 | 97.8 | > 1000 | CNc1cc2c(N3CCC[C@H](N(C)C)C3)cc(-c3c(C)cccc3F)cc2cn1 [Example 83, 5-[(3S)-3-(dimethylamino)-1-piperidyl]-7-(2-fluoro-6-methyl-phenyl)-N-methyl-isoquinolin-3-amine] |
| 0.0819 | 0.409 | 2.23 | 49.4 | 274 | > 1000 | Cc1cccc(F)c1-c1cc(N2CCC[C@@H](N(C)C)C2)c2cc(N)ncc2c1 [Example 84, 5-[(3R)-3-(dimethylamino)-1-piperidyl]-7-(2-fluoro-6-methyl-phenyl)isoquinolin-3-amine] |
